Data reported in ChEMBL document CHEMBL1201862, “PubChem BioAssay data set” (2004).
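Assay format: 96-well plates, 48-hour exposure. Abbreviation: GI50, concentration required for 50% inhibition of growth.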 The source made the active and inactive calls. Cut-off read from the data, not from the text of the source: active = GI50 up to about 1.1 µM and inactive = higher.

Legend:
Test in all cases: NCI anticancer screen, dose series, 48 h
786-0 = test system: 786-0
CAKI-1 = test system: CAKI-1
COLO 205 = test system: COLO 205
HCT-116 = test system: HCT-116
HCT-15 = test system: HCT-15
K562 = test system: K562
LOX IMVI = test system: LOX IMVI
M19-MEL = test system: M19-MEL
Malme-3M = test system: Malme-3M
OVCAR-5 = test system: OVCAR-5
RPMI-8226 = test system: RPMI-8226
RXF 393 = test system: RXF 393
SF-539 = test system: SF-539
SK-MEL-5 = test system: SK-MEL-5
SN12C = test system: SN12C
SNB-75 = test system: SNB-75
SW-620 = test system: SW-620
UACC-257 = test system: UACC-257

SMILES | GI50 (786-0) | GI50 (CAKI-1) | GI50 (COLO 205) | GI50 (HCT-116) | GI50 (HCT-15) [µM] | GI50 (K562) | GI50 (LOX IMVI) | GI50 (M19-MEL) | GI50 (Malme-3M) | GI50 (OVCAR-5) | GI50 (RPMI-8226) | GI50 (RXF 393) | GI50 (SF-539) | GI50 (SK-MEL-5) | GI50 (SN12C) | GI50 (SNB-75) | GI50 (SW-620) | GI50 (UACC-257)
CC1=COC(=O)c2ccccc2N1 | > 100 µM (inactive) | > 100 µM (inactive) | > 100 µM (inactive) | > 100 µM (inactive) | > 100 | > 100 µM (inactive) | > 100 µM (inactive) | > 100 µM (inactive) | > 100 µM (inactive) | > 100 µM (inactive) | > 100 µM (inactive) | > 100 µM (inactive) | > 100 µM (inactive) | > 100 µM (inactive) | > 100 µM (inactive) | > 100 µM (inactive) | > 100 µM (inactive) | 
COc1cc2ccc3c4cc(OC)c(OC)cc4c[n+](C)c3c2cc1O | > 100 µM (inactive) | > 100 µM (inactive) | > 90.8 µM (inactive) | > 100 µM (inactive) | > 100 | > 83.4 µM (inactive) | > 73.8 µM (inactive) | > 100 µM (inactive) | > 100 µM (inactive) | > 100 µM (inactive) | > 100 µM (inactive) | > 100 µM (inactive) | > 100 µM (inactive) | > 100 µM (inactive) | 2.1 µM (inactive) | 15.2 µM (inactive) | > 100 µM (inactive) | > 100 µM (inactive)
CCCCN(CC)C(=O)C(=O)C1C(=O)Nc2ccccc2[S+]1[O-] (stereo not given) | > 100 µM (inactive) | > 100 µM (inactive) | > 100 µM (inactive) | > 100 µM (inactive) | > 100 | > 100 µM (inactive) | > 100 µM (inactive) | > 100 µM (inactive) | > 100 µM (inactive) | > 100 µM (inactive) | > 100 µM (inactive) | > 100 µM (inactive) | > 100 µM (inactive) | > 100 µM (inactive) | > 100 µM (inactive) | > 100 µM (inactive) | > 100 µM (inactive) | > 100 µM (inactive)
COc1ccc(S(=O)(=O)N(CC(=O)O)c2ccccc2)cc1 | > 100 µM (inactive) | > 100 µM (inactive) | > 100 µM (inactive) |  | > 100 | > 100 µM (inactive) | > 100 µM (inactive) | > 100 µM (inactive) | > 100 µM (inactive) | > 100 µM (inactive) | > 100 µM (inactive) | > 100 µM (inactive) | > 100 µM (inactive) | > 100 µM (inactive) | > 100 µM (inactive) | 67.3 µM (inactive) | > 100 µM (inactive) | > 100 µM (inactive)
